Measured values: patent US12364692B2, “Topical naloxone compositions and methods for using the same” (Teikoku Pharma USA, Inc., priority 2020, dated 2025)

Experiments:
[1] = control and treatments other than hydrogen peroxide (5N hydrochloric acid, 5N sodium hydroxide 18 hours, 60° C. 2 weeks); peak areas relative to total area
[2] = system: mice (HOS:HR-1 hairless) with atopic dermatitis skin symptoms; experiment: Scratching behavior in hairless mouse model of atopic dermatitis pruritis; type: in vivo; conditions: FIGS. 3-6; topical 0.1 ml/day, days 34, 41, 48, 55
Method: Atopic dermatitis skin symptoms were induced by providing a special feed diet 10 to mice (HOS:HR-1 hairless). All groups were treated with daily 0.1 ml/day of ointment over the entire back of each mouse for three consecutive weeks starting on Day 34. Mice were video recorded predose (baseline activity) for 30 minutes and observed for scratching for a period of one hour post application on days 34, 35, 38, 41, 45, 48, and 55. The topical naloxone active agent composition was allowed to dry 15 for one (1) hour prior to video recording of scratching behavior. Scratching behavior was monitored every 5 minutes for an hour where the number of scratching bouts includes one or more of the following actions: hind leg raised, scratching the back or lowering the leg to the floor. Cumulative duration of scratching behavior was also determined. Trans-epidermal water loss (TEWL) measured on Days 34, 48, 55 20 (Phase 2) and Days 33 and 55 (Phase 3) was also measured.

Row | Compound | total related substances [1] | cumulative scratching duration [2] | mean scratching bouts [2]
1 | C=CCN1CC[C@]23c4c5ccc(O)c4O[C@H]2C(=O)CC[C@@]3(O)[C@H]1C5 [naloxone drug substance, naloxone] | below 1% | – | –
2 | C=CCN1CC[C@]23c4c5ccc(O)c4O[C@H]2C(=O)CC[C@@]3(O)[C@H]1C5 [naloxone free base, naloxone] | – | decreased | decreased
